How the values were obtained:
E. faecalis PBP2a = E. faecalis PBP2a (Enterococcus faecalis, UniProt Q837Z4); experiment: Displacement of probe compound S16 (CMG121) from E. faecalis PBP2a, decrease in fluorescence polarization on addition of test compound; format: binding; conditions: read-out: E. faecalis PBP2a Kd; FIG. 2; FP displacement; 75 nM probe S16, 0.38-0.46 uM PBP2a, 10 mM TRIS pH 8.0, 100 mM NaCl, 0° C. 30 min
Procedure: (§1) Solution containing 10 mM TRIS (pH=8.0), 100 mM NaCl, 0.3% DMSO, 75 nM S16, and bacterial glycosyltransferase (E. coli PBP1b c=2.2 uM; E. faecalis PBP2a c=5.1 uM; S. aureus SgtB c=2.1 uM) were allowed to equilibrate for 30 min at 0° C. and then serially diluted (1/1 dilutions) into buffer containing 10 mM TRIS (pH=8.0), 100 mM NaCl, 0.3% DMSO, and 75 nM S16. After equilibration at 0° C. for 30 min the 20 μL of the solutions were transferred to a black 384 well plate (Corning NBS Low Volume) and fluorescence polarization (FP, ex: 480 nm; em: 535 nm) was measured using a Perkin Elmer Envision microplate reader. Each series was performed in duplicate and the data was plotted FP vs. concentration of enzyme. For determination of the KD, the average FP values were converted to fluorescence anisotropy and fitted to the standard equation describing an equilibrium L+E<->LE (L=ligand; E=enzyme; LE=ligand enzyme complex) using GraphPad Prism 5.0 (GraphPad Software, Inc.; La Jolla, Calif., USA). The KD values for probe S16 are: E. coli PBP1b: 0.15; E. faecalis PBP2a: 0.38; […]
(§2) For determination of the Ki, the average FP values were first converted to fluorescence anisotropy.

S. aureus SgtB [1] = biological target: S. aureus SgtB (Staphylococcus aureus, UniProt Q99T05); experiment: Displacement of probe compound S16 (CMG121) from S. aureus SgtB, decrease in fluorescence polarization on addition of test compound; format: binding; conditions: read-out: S. aureus SgtB Kd; FIG. 2; FP displacement; 75 nM probe S16, 0.2-0.25 uM SgtB, 10 mM TRIS pH 8.0, 100 mM NaCl, 0° C. 30 min
Procedure: Solution containing 10 mM TRIS (pH=8.0), 100 mM NaCl, 0.3% DMSO, 75 nM S16, and bacterial glycosyltransferase (E. coli PBP1b c=2.2 uM; E. faecalis PBP2a c=5.1 uM; S. aureus SgtB c=2.1 uM) were allowed to equilibrate for 30 min at 0° C. and then serially diluted (1/1 dilutions) into buffer containing 10 mM TRIS (pH=8.0), 100 mM NaCl, 0.3% DMSO, and 75 nM S16. After equilibration at 0° C. for 30 min the 20 μL of the solutions were transferred to a black 384 well plate (Corning NBS Low Volume) and fluorescence polarization (FP, ex: 480 nm; em: 535 nm) was measured using a Perkin Elmer Envision microplate reader. Each series was performed in duplicate and the data was plotted FP vs. concentration of enzyme. For determination of the KD, the average FP values were converted to fluorescence anisotropy and fitted to the standard equation describing an equilibrium L+E<->LE (L=ligand; E=enzyme; LE=ligand enzyme complex) using GraphPad Prism 5.0 (GraphPad Software, Inc.; La Jolla, Calif., USA). The KD values for probe S16 are: E. coli PBP1b: 0.15; E. faecalis PBP2a: 0.38;
S. aureus SgtB: 0.18. Probe CMG121 (75 nM) is displaced from S. aureus SgtB (0.2 μM) by addition of either moenomycin or the weaker PGT inhibitor disaccharide S15, as evidenced by reduction of FP. […]
as §2

E. coli PBP1b [2] = biological target: T1, E. coli PBP1b (Escherichia coli, UniProt P02919); experiment: Displacement of probe compound S16 (CMG121) from E. coli PBP1b, decrease in fluorescence polarization on addition of test compound; format: binding
Procedure: as §1, §2

[3] = test system: bacterial glycosyltransferase (E. coli PBP1b; E. faecalis PBP2a; S. aureus SgtB); experiment: Assay validation: displacement of probe compound from enzyme (fluorescence polarization); format: binding; conditions: 75 nM probe S16; test compound up to ca. 200 uM
Procedure: (§3) To equilibrated solutions containing 10 mM TRIS (pH=8.0), 100 mM NaCl, 75 nM S16, and bacterial glycosyltransferase (E. coli PBP1b c=0.1-0.15 uM; E. faecalis PBP2a c=0.38-0.46 uM; S. aureus SgtB c=0.2-0.25 uM) was added the test compound in DMSO or DMSO/H2O solutions (stock solutions were typically 2 mM) to obtain a final concentration of test compound of ca. 200 uM. These solutions were serially diluted (1/1 dilutions) into buffer containing 10 mM TRIS (pH=8.0), 100 mM NaCl, 75 nM Probe CMG121, and bacterial glycosyl transferase (E. coli PBP1b c=0.1-0.15 uM; E. faecalis PBP2a c=0.38-0.46 uM; S. aureus SgtB c=0.2-0.25 uM). After equilibration at 0° C. for 30 min the 20 μL of the solutions were transferred to a black 384 well plate (Corning NBS Low Volume) and fluorescence polarization (FP, ex: 480 nm; em: 535 nm) was measured using a Perkin Elmer Envision microplate reader. Each series was performed in duplicate and the data was plotted FP vs. concentration of test compound.

S. aureus SgtB [4] = biological target: T2, S. aureus SgtB (Staphylococcus aureus, UniProt Q93Q23); experiment: In vitro PGT inhibition, PG formation from 14C-lipid II; format: biochemical; conditions: S. aureus SgtB 50 nM, lipid II 4 μM
T2 sequence (Q93Q23 1-269): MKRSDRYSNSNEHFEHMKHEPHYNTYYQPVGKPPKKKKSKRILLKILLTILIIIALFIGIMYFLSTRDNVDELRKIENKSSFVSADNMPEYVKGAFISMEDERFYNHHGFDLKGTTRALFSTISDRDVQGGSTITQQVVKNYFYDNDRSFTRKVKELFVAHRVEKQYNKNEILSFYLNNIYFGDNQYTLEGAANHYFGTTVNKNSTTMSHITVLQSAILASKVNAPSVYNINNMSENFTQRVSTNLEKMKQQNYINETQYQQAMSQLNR
Procedure: (§4) A solutions of S. aureus SgtB (50 nM) in 12.5 mM HEPES (pH=7.5), 2 mM MnCl2, and 250 μM tween-80 (8 μL) were incubated with DMSO solutions containing the inhibitor of interest in different concentrations (1 μL) for 20 min. Then ^14C-labelled lipid II (1 μL, 40 μM, ^14C/^12C 1/3) was added and the polymerization reaction was allowed to proceed for 25 min at room temperature. The reaction was quenched with 10 μL of a solution of moenomycin (1 μM) in 10% triton-X reduced and the remaining lipid II was separated from peptidoglycan (PG) using paper strip chromatography (isobutyric acid/1M NH4OH 5/3). Using a scintillation counter the ratio of radioactivity in PG to total radioactivity was determined and plotted vs. inhibitor concentration. IC50s were determined using the curve fitting program GraphPad Prism 5.0 (GraphPad Software, Inc.; La Jolla, Calif., USA).

E. coli PBP1b [5] = biological target: T1, E. coli PBP1b; experiment: as above; format: biochemical; conditions: E. coli PBP1b 50 nM, lipid II 4 μM
Procedure: as §4
Solutions of the PGT (50 nM) in 50 mM HEPES (pH=7.5), 10 mM CaCl2, and […] PenG (8 μL) were incubated with DMSO solutions containing the inhibitor of interest in different concentrations (1 μL) for 20 min. Then ^14C-labelled lipid II (1 μL, 40 μM, ^14C/^12C 1/3) was added and the polymerization reaction was allowed to proceed for 25 min at room temperature. The reaction was quenched and processed as described above.

Gram-positive organisms = conditions: against Gram-positive organisms; cited from earlier work
S. aureus SgtB [6] = experiment: Fluorescence polarization probe competition (Ki); format: binding; conditions: probe CMG121 75 nM, S. aureus SgtB 0.2 μM; read-out: Ki (displacement of probe CMG121)
Procedure: as §3, with “Each series was performed in duplicate and the data was plotted FP vs. concentration of test compound.” left out
A black 384 well plate (Corning NBS Low Volume No. 3820) was filled (10 μL per well) with an equilibrated solution containing 10 mM TRIS (pH=8.0), 100 mM NaCl, 75 nM disaccharide S15, and 1.0-1.5 μM S. aureus SgtB (depending on protein batch). […] The plate was incubated at 4° C. for 30 min and read with an Perkin Elmer EnVision microplate reader as described above. […]
For determination of the Ki, the average FP values were first converted to fluorescence anisotropy. […]

T1 sequence (P02919 whole entry): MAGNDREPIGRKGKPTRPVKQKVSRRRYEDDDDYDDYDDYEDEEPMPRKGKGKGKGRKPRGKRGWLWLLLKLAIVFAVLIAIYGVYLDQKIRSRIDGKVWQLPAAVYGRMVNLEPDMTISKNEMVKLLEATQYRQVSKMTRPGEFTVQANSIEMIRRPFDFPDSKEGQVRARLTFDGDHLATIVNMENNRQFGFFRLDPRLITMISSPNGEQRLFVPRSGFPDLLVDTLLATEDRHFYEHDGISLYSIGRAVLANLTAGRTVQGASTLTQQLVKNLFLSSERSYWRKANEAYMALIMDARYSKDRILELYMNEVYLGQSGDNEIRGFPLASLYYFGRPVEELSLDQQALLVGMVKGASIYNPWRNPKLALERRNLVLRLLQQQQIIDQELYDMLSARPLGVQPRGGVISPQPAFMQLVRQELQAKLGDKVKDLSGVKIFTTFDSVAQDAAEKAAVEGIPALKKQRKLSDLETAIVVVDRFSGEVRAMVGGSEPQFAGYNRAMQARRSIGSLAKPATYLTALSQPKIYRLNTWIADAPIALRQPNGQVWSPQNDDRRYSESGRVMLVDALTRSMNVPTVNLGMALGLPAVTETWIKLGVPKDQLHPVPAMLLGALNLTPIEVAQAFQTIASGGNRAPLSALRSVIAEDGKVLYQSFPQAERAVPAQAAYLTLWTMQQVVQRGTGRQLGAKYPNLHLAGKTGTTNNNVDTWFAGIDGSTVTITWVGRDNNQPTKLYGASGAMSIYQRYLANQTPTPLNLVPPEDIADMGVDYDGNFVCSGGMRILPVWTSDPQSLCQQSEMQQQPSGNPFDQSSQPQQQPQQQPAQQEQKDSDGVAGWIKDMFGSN
Sequence of E. faecalis PBP2a (Q837Z4 entry or part of it): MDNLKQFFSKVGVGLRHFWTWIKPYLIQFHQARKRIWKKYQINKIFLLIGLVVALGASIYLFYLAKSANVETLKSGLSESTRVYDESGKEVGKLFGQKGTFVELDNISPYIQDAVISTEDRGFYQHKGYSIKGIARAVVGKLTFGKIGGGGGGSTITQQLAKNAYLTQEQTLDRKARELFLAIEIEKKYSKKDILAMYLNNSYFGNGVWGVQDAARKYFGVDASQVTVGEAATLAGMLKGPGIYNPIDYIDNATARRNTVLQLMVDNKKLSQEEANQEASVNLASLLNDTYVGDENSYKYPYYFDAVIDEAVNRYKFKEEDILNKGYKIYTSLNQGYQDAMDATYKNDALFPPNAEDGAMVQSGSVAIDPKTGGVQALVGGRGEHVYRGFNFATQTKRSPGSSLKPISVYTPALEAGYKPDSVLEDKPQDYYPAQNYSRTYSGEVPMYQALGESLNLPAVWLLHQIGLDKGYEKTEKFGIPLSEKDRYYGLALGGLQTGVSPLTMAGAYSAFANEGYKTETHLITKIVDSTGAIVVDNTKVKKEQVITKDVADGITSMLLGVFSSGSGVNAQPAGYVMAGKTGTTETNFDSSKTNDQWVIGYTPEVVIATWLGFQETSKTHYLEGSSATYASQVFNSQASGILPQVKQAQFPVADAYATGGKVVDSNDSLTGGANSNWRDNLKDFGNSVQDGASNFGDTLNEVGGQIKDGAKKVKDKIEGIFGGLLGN

C=C(C/C=C(\C)CCC=C(C)C)CCC(C)(C)/C=C/CC/C(C)=C\CO[C@H](COP(=O)(O)O[C@H]1O[C@H](C(N)=O)[C@@](C)(O)[C@H](OC(N)=O)[C@H]1O[C@@H]1O[C@H](CO[C@@H]2O[C@H](CO)[C@@H](O)[C@H](O)[C@H]2O)[C@@H](O[C@@H]2O[C@H](C)[C@@H](O[C@@H]3O[C@H](C(=O)NC4=C(O)CCC4=O)[C@H](O)[C@H](O)[C@H]3O)[C@H](O)[C@H]2NC(C)=O)[C@H](O)[C@H]1NC(C)=O)C(=O)O [Moenomycin A]
Kd (E. faecalis PBP2a): 950 nM | Kd (S. aureus SgtB [1]): 1100 nM | Kd (E. coli PBP1b [2]; read-out: E. coli PBP1b Kd, FIG. 2, FP displacement, 75 nM probe S16, 0.1-0.15 uM PBP1b, 10 mM TRIS pH 8.0, 100 mM NaCl, 0° C. 30 min): 3900 nM

CCCCCCCCCCCCO[C@@H]1O[C@H](CO)[C@@H](O[C@H]2O[C@H](CO)[C@@H](O)[C@H](O)[C@H]2O)[C@H](O)[C@H]1O [dodecyl-β-D-maltoside]
Displacement of the probe compound (change in fluorescence polarization) on addition of test compound [3]: does not displace

C=C(C/C=C(\C)CCC=C(C)C)CCC(C)(C)/C=C/CC/C(C)=C\CO[C@H](COP(=O)(O)O[C@H]1O[C@H](C(N)=O)[C@@](C)(O)[C@H](OC(N)=O)[C@H]1O[C@@H]1O[C@H](CO[C@@H]2O[C@H](CO)[C@@H](O)[C@H](O)[C@H]2O)[C@@H](O[C@@H]2O[C@H](C)[C@@H](O[C@@H]3O[C@H](C(=O)NC4=C(O)CCC4=O)[C@H](O)[C@H](O)[C@H]3O)[C@H](O)[C@H]2NC(C)=O)[C@H](O)[C@H]1NC(C)=O)C(=O)O [moenomycin A]
Displacement of the probe compound (change in fluorescence polarization) on addition of test compound [3]: decrease in fluorescence polarization | IC50 (S. aureus SgtB [4]): 6 nM | IC50 (E. coli PBP1b [5]): 12 nM | Potency relative to vancomycin (Gram-positive organisms): 10-1000 times | Ki (S. aureus SgtB [6]): 640 nM

CC(=O)N[C@H]1[C@H](O[C@H]2[C@H](O)[C@@H](NC(C)=O)[C@H](O[C@H]3[C@@H](OP(=O)(O)OC[C@@H](OC/C=C(/C)CCC=C(C)C)C(=O)O)O[C@H](C(N)=O)[C@@](C)(O)[C@@H]3OC(N)=O)O[C@@H]2CO[C@@H]2O[C@H](CO)[C@@H](O)[C@H](O)[C@H]2O)O[C@H](C)[C@@H](O[C@@H]2O[C@H](C(=O)NC3=C(O)CCC3=O)[C@H](O)[C@H](O)[C@H]2O)[C@@H]1O [neryl-Moenomycin A (n-MmA), neryl-moenomycin A]
IC50 (E. coli PBP1b [2]; FIG. 6, printed on the figure showing FP displacement of the probe by neryl-moenomycin A): 200 nM

CC(=O)N[C@H]1[C@H](O[C@H]2[C@H](O)[C@@H](NC(C)=O)[C@H](O[C@H]3[C@@H](OP(=O)(O)OC[C@@H](OC/C=C(/C)CCC=C(C)C)C(=O)O)O[C@H](C(N)=O)[C@@](C)(O)[C@@H]3OC(N)=O)O[C@@H]2CO[C@@H]2O[C@H](CO)[C@@H](O)[C@H](O)[C@H]2O)O[C@H](C)[C@@H](O[C@@H]2O[C@H](C(=O)NC3=C(O)CCC3=O)[C@H](O)[C@H](O)[C@H]2O)[C@@H]1O [neryl-moenomycin A]
Displacement of the probe compound (change in fluorescence polarization) on addition of test compound [3]: decrease in fluorescence polarization

CCCCCCCCCCCCCC(=O)OC[C@H](COP(=O)(O)OCC(O)COP(=O)(O)OC[C@@H](COC(=O)CCCCCCCCCCCCC)OC(=O)CCCCCCCCCCCCC)OC(=O)CCCCCCCCCCCCC (stereo partly drawn) [tetramystryl cardiolipin]
Displacement of the probe compound (change in fluorescence polarization) on addition of test compound [3]: partial displacement

ZE-farnesyl-moenomycin A
Displacement of the probe compound (change in fluorescence polarization) on addition of test compound [3]: decrease in fluorescence polarization

nC12-moenomycin A
Displacement of the probe compound (change in fluorescence polarization) on addition of test compound [3]: decrease in fluorescence polarization

nC20-moenomycin A
Displacement of the probe compound (change in fluorescence polarization) on addition of test compound [3]: decrease in fluorescence polarization
